Reference: US20160310512A1, “THERAPY REGIMEN FOR TREATING SEVERE ACNE RELATED DISEASES” (GALDERMA RESEARCH & DEVELOPMENT, priority 2013, published 2016)

Assays:
[1] = when combined with BPO; unlike tretinoin; cited from earlier work
P. acnes = P. acnes presence by UV fluorescence photography (Visia system), subset of 40 subjects; type: in vivo
Protocol: Atrophic acne scar counts were conducted on half the face and the presence of P. acnes were also assessed by UV fluorescence photography (Visia® system—Canfield Scientific, Inc.). […] As few centers were equipped with this system, this test was performed on a subset of only 40 subjects.

severe acne vulgaris [2] = experiment: Multi-center randomized investigator-blind clinical study, 20 weeks: efficacy on acne lesions, nodules and atrophic scars; type: in vivo, human; details: for Atrophic acne scar count (Mean ± SD): half face
Protocol: This example was the first study evaluating the concomitant use of these treatments.
Isotretinoin is administrated under capsule form (of 40 mg and/or 10 mg each). The quantity administrated was calculated according to patient weight and treatment duration in order to finally administrate a dosage of 0.5 mg/kg for the first 4 weeks of treatment and 1 mg/kg for the 16 remaining weeks.
This study was conducted as a multi-center, randomized, investigator-blind, controlled and parallel group trial. This non-inferiority study involved subjects of any race, aged 12 to 35 years inclusive with severe acne and meeting specific eligibility criteria.
Subjects were randomized at baseline and treated for 20 weeks with either Adapalene-BPO gel associated with oral doxycycline or its vehicle gel associated with oral Isotretinoin.
A total of 266 subjects were enrolled across 29 centres in Canada. Of which, 217 subjects were included in the analysis-per-protocol (PP) populations (all randomized subjects without any major protocol deviations) for primary endpoint analysis. All other endpoints were analysed with population-intent-to-treat (ITT) (all randomized subjects who were dispensed study medication) (N=266).
For efficacy variables, in order to evaluate the effect of major deviations or of data exclusions, the ITT population were analyzed at each visit using the last observation carried forward (LOCF) to impute missing values. If no post-baseline data was available, baseline was carried forward. […] The other missing values were not replaced (observed data).
(§1) Reduction of at least 75% of number of nodules at the end of treatment
Other secondary efficacy endpoints were the percent change from baseline visit in Total lesion counts, Inflammatory lesion counts, Nodule counts, and the total atrophic acne scar counts.

severe acne vulgaris [3] = experiment: Same clinical study: composite overall success (efficacy + safety); type: in vivo, human
Description: To achieve this objective, a primary outcome, overall success, was defined as a composite endpoint including efficacy and safety measurements.
Overall success was deemed to be reached when the 2 following criteria were fulfilled:
as §1

[4] = APT, Very Bothered at least 1 Month + Persisting at least 2 Weeks + At least 1 episode
[5] = ITT observed, chelitis, xerosis, erythema, dry mouth, pruritus, epistaxis, conjunctivitis, eye irritation, dry eye
[6] = ITT observed, lip balm, moisturizer, cleanser, cosmetics not counted
[7] = ITT observed, phototoxicity, allergic skin/eczematous reaction, candida vaginitis
[8] = ITT observed, study termination at subject's request motivated by treatment concern
[9] = ITT Observed population, count (%)

For `COc1ccc(-c2ccc3cc(C(=O)O)ccc3c2)cc1C12CC3CC(CC(C3)C1)C2` [Adapalene, 6-[3-(1-adamantyl)-4-methoxyphenyl]-2-naphtoic acid], the “stability in the presence of light” value [1] is given as “stable”.

In the case of `CC1=C(/C=C/C(C)=C/C=C/C(C)=C\C(=O)O)C(C)(C)CCC1` [Vehicle + Isotretinoin, 13-cis-retinoic acid], the “Clinically significant lab abnormality, Evt” value (APT) is reported as 6 n, the “Clinically significant lab abnormality, Subj.” value (APT) is reported as 4 (3.0%) n (%) and the “Related AE requiring a prescription of a concomitant medical treatment, Evt” value (APT) is reported as 34 n. The “Related AE requiring a prescription of a concomitant medical treatment, Subj.” value (APT) was 27 (25.6%) n (%), the “Related AEs deemed as safety failure, Subj.” value (APT) was 45 (33.8%) n (%) and the “Related AEs leading to discontinuation, Evt” value (APT) was 5 n. The “Related AEs leading to discontinuation, Subj.” value (APT) was 4 (3.0%) n (%), the “Related AEs, Evt” value (APT) was 299 n and the “Related AEs, Subj. with at least one event” value (APT) was 117 (88.0%) n (%). For the same compound, the “Related serious AEs, Evt” value (APT) was 1 n, the “Related serious AEs, Subj.” value (APT) was 1 (0.8%) n (%) and the “Related severe AEs, Evt” value (APT) was 5 n. For the same compound, the “Related severe AEs, Subj.” value (APT) was 5 (3.8%) n (%), the “subjects reporting at least 1 related AE” value (APT) was 88% and the “subjects with related AEs deemed as a safety failure (AEs of special management concern)” value (APT) was 33.8%. For the same compound, the “Other medically relevant related AEs, Evt” value [4] was 35 n, the “Other medically relevant related AEs, Subj.” value [4] was 23 (17.3%) n (%) and the “Related AEs deemed as safety failure, Evt” value (APT, each AE counted once) was 73 n. For the same compound, the “Clinically significant lab abnormality, Event” value (ITT observed) was 6 n, the “Clinically significant lab abnormality, Subject” value (ITT observed) was 4 (3.2%) n, % and the “Inability to escalate to Iso 1 mg/kg/day, Event” value (ITT observed) was 5 n. The “Inability to escalate to Iso 1 mg/kg/day, Subject” value (ITT observed) was 5 (4.0%) n, %, the “Necessity of oral drug downward dose adjustment, Event” value (ITT observed) was 2 n and the “Necessity of oral drug downward dose adjustment, Subject” value (ITT observed) was 2 (1.6%) n, %. The “Related AE leading to discontinuation, Event” value (ITT observed) was 5 n, the “Related AE leading to discontinuation, Subject” value (ITT observed) was 4 (3.2%) n, % and the “Related SAE, Event” value (ITT observed) was 1 n. The “Related SAE, Subject” value (ITT observed) was 1 (0.8%) n, %, the “Related Severe AE, Event” value (ITT observed) was 5 n and the “Related Severe AE, Subject” value (ITT observed) was 5 (4.0%) n, %. The “Safety Failure, Event” value (ITT observed) was 95 n, the “Safety Failure, Subject” value (ITT observed) was 50 (40.0%) n, % and the “subjects with safety failure” value (ITT observed) was 40.0%. For the same compound, the “Predefined related AE Very Bothered, at least 1 Month, Event” value [5] was 2 n, the “Predefined related AE Very Bothered, at least 1 Month, Subject” value [5] was 2 (1.6%) n, % and the “Related AE requiring a prescription of a concomitant medical treatment, Event” value [6] was 34 n. The “Related AE requiring a prescription of a concomitant medical treatment, Subject” value [6] was 27 (21.6%) n, %, the “Predefined related AE for at least 1 episode, Event” value [7] was 21 n and the “Predefined related AE for at least 1 episode, Subject” value [7] was 15 (12.0%) n, %. For the same compound, the “Subject's treatment concern, Event” value [8] was 2 n, the “Subject's treatment concern, Subject” value [8] was 2 (1.6%) n, % and the “Safety Success (absence of medically relevant events)” value (PP population, 20 weeks) was 67 (59.8%) patients (%). The “P. acnes fluorescence, median percent change” value (P. acnes; week 2) was “+14.1%”, the “P. acnes reduction (in words)” value (P. acnes; week 20) was “in favor of ISO” and the “Efficacy failure (nodule reduction <75%), Event” value (severe acne vulgaris [2]; ITT observed) was 2 n. The “Efficacy failure (nodule reduction <75%), Subject” value (severe acne vulgaris [2]; ITT observed) was 2 (1.6%) n, %, the “Efficacy Success (nodule reduction >75%)” value (severe acne vulgaris [2]; PP population, end of 20-week treatment) was 110 (98.2%) patients (%) and the “Atrophic acne scar count (Mean ± SD)” value (severe acne vulgaris [2]; W12-LOCF (ITT)) was 16.7 ± 15.7. For the same compound, the “Atrophic acne scar count (Mean ± SD)” value (severe acne vulgaris [2]; W20-LOCF (ITT)) was 16.1 ± 16.7, the “Inflammatory lesions (Median) (not including nodules), % change” value (severe acne vulgaris [2]; Week 20, ITT LOCF) was −95% and the “Nodules (Mean), % change” value (severe acne vulgaris [2]; Week 20, ITT LOCF) was −96%. For the same compound, the “Total lesion counts (Median), % change” value (severe acne vulgaris [2]; Week 20, ITT LOCF) was −93%, the “acne lesion outcomes compared to Adapalene-BPO+Doxycycline (in words)” value (severe acne vulgaris [2]; Week 20, most of the acne lesion outcomes) was “superior” and the “Overall success: Failure” value (severe acne vulgaris [3]; [9]) was 52 (41.6%). The “Overall success: Success” value (severe acne vulgaris [3]; [9]) was 73 (58.4%), the “Overall Success” value (severe acne vulgaris [3]; PP population, 20 weeks) was 65 (58.0%) patients (%) and the “Overall success: Failure” value (severe acne vulgaris [3]; PP population, count (%)) was 47 (42.0%). The “composite endpoint (efficacy and safety), overall success” value (severe acne vulgaris [3]; intent-to-treat population, p=0.125) was 54.9% and the “composite endpoint (efficacy and safety), overall success” value (severe acne vulgaris [3]; per-protocol population, p=0.014) was 58%.
